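Values below derive from 48-hour exposures of cells grown in 96-well plates, with endpoints linearly interpolated between the two concentrations bracketing the appropriate inhibition level. TGI is the concentration that stops growth completely.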
Assays:
Assay in all cases: inhibition of tumour cell growth, NCI panel, 48 h
NCI-H522 lung = system: NCI-H522 lung
HL-60(TB) leukemia = system: HL-60(TB) leukemia
786-0 renal = system: 786-0 renal
K-562 leukemia = system: K-562 leukemia
NCI/ADR-RES ovarian = system: NCI/ADR-RES ovarian
T-47D breast = system: T-47D breast
MALME-3M melanoma = system: MALME-3M melanoma
NCI-H226 lung = system: NCI-H226 lung
SK-MEL-5 melanoma = system: SK-MEL-5 melanoma
CAKI-1 renal = system: CAKI-1 renal
UO-31 renal = system: UO-31 renal
OVCAR-8 ovarian = system: OVCAR-8 ovarian
A498 renal = system: A498 renal
EKVX NSCLC = system: EKVX NSCLC
PC-3 prostate = system: PC-3 prostate
HCC-2998 colon = system: HCC-2998 colon
NCI-H23 lung = system: NCI-H23 lung
HS 578T breast = system: HS 578T breast
ACHN renal = system: ACHN renal
DU-145 prostate = system: DU-145 prostate
HCT-116 colon = system: HCT-116 colon
MDA-N = system: MDA-N
SR leukemia = system: SR leukemia
A549 NSCLC = system: A549 NSCLC
OVCAR-5 ovarian = system: OVCAR-5 ovarian
RXF 393 renal = system: RXF 393 renal
NCI-H460 lung = system: NCI-H460 lung
MDA-MB-231 breast = system: MDA-MB-231 breast
SN12C renal = system: SN12C renal
SF-268 CNS = system: SF-268 CNS
KM12 colon = system: KM12 colon
SK-MEL-2 melanoma = system: SK-MEL-2 melanoma
UACC-62 melanoma = system: UACC-62 melanoma
HT29 colon = system: HT29 colon
SK-MEL-28 melanoma = system: SK-MEL-28 melanoma
SW-620 colon = system: SW-620 colon
SK-OV-3 ovarian = system: SK-OV-3 ovarian
COLO 205 colon = system: COLO 205 colon
MDA-MB-435 = system: MDA-MB-435
RPMI-8226 leukemia = system: RPMI-8226 leukemia
IGROV1 ovarian = system: IGROV1 ovarian
CCRF-CEM leukemia = system: CCRF-CEM leukemia
SF-539 CNS = system: SF-539 CNS
HOP-62 NSCLC = system: HOP-62 NSCLC
SNB-19 CNS = system: SNB-19 CNS
TK-10 renal = system: TK-10 renal
HCT-15 colon = system: HCT-15 colon
OVCAR-3 ovarian = system: OVCAR-3 ovarian
U251 CNS = system: U251 CNS
MOLT-4 leukemia = system: MOLT-4 leukemia
OVCAR-4 ovarian = system: OVCAR-4 ovarian
M14 melanoma = system: M14 melanoma
UACC-257 melanoma = system: UACC-257 melanoma
MCF7 breast = system: MCF7 breast
SNB-75 CNS = system: SNB-75 CNS
HOP-92 NSCLC = system: HOP-92 NSCLC
BT-549 breast = system: BT-549 breast
LOX IMVI melanoma = system: LOX IMVI melanoma
SF-295 CNS = system: SF-295 CNS

With `CNC(=O)/C(C#N)=C(\N)N1CCCC1` the TGI (NCI-H522 lung) was > 100 µM, the TGI (HL-60(TB) leukemia) was > 100 µM and the TGI (786-0 renal) was > 100 µM. The TGI (K-562 leukemia) was > 100 µM, the TGI (NCI/ADR-RES ovarian) was > 100 µM and the TGI (T-47D breast) was > 100 µM. The TGI (MALME-3M melanoma) was > 100 µM, the TGI (NCI-H226 lung) was > 100 µM and the TGI (SK-MEL-5 melanoma) was > 100 µM. The TGI (CAKI-1 renal) was > 100 µM, the TGI (UO-31 renal) was > 100 µM and the TGI (OVCAR-8 ovarian) was > 100 µM. The TGI (A498 renal) was > 100 µM, the TGI (EKVX NSCLC) was > 100 µM and the TGI (PC-3 prostate) was > 100 µM. The TGI (HCC-2998 colon) was > 100 µM, the TGI (NCI-H23 lung) was > 100 µM and the TGI (HS 578T breast) was > 100 µM. The TGI (ACHN renal) was > 100 µM, the TGI (DU-145 prostate) was > 100 µM and the TGI (HCT-116 colon) was > 100 µM. The TGI (MDA-N) was > 100 µM, the TGI (SR leukemia) was > 100 µM and the TGI (A549 NSCLC) was > 100 µM. For the same compound, the TGI (OVCAR-5 ovarian) was > 100 µM, the TGI (RXF 393 renal) was > 100 µM and the TGI (NCI-H460 lung) was > 100 µM. For the same compound, the TGI (MDA-MB-231 breast) was > 100 µM, the TGI (SN12C renal) was > 100 µM and the TGI (SF-268 CNS) was > 100 µM. For the same compound, the TGI (KM12 colon) was > 100 µM, the TGI (SK-MEL-2 melanoma) was > 100 µM and the TGI (UACC-62 melanoma) was > 100 µM. For the same compound, the TGI (HT29 colon) was > 100 µM, the TGI (SK-MEL-28 melanoma) was > 100 µM and the TGI (SW-620 colon) was > 100 µM. The TGI (SK-OV-3 ovarian) was > 100 µM, the TGI (COLO 205 colon) was > 100 µM and the TGI (MDA-MB-435) was > 100 µM. For the same compound, the TGI (RPMI-8226 leukemia) was > 100 µM, the TGI (IGROV1 ovarian) was > 100 µM and the TGI (CCRF-CEM leukemia) was > 100 µM. For the same compound, the TGI (SF-539 CNS) was > 100 µM, the TGI (HOP-62 NSCLC) was > 100 µM and the TGI (SNB-19 CNS) was > 100 µM. The TGI (TK-10 renal) was > 100 µM, the TGI (HCT-15 colon) was > 100 µM and the TGI (OVCAR-3 ovarian) was > 100 µM. The TGI (U251 CNS) was > 100 µM and the TGI (MOLT-4 leukemia) was > 100 µM.

For `OC[C@H](O)[C@@H](OCc1ccccc1)[C@H](NCc1ccccc1)c1cccs1`, the TGI (NCI-H522 lung) was > 100 µM, the TGI (OVCAR-4 ovarian) was > 100 µM and the TGI (M14 melanoma) was > 100 µM. For the same compound, the TGI (HL-60(TB) leukemia) was > 100 µM, the TGI (786-0 renal) was > 100 µM and the TGI (K-562 leukemia) was > 100 µM. For the same compound, the TGI (NCI/ADR-RES ovarian) was > 100 µM, the TGI (T-47D breast) was > 100 µM and the TGI (MALME-3M melanoma) was > 100 µM. For the same compound, the TGI (NCI-H226 lung) was > 100 µM, the TGI (SK-MEL-5 melanoma) was > 100 µM and the TGI (UACC-257 melanoma) was > 100 µM. For the same compound, the TGI (CAKI-1 renal) was > 100 µM, the TGI (UO-31 renal) was 68.8 µM and the TGI (OVCAR-8 ovarian) was > 100 µM. For the same compound, the TGI (A498 renal) was > 100 µM, the TGI (EKVX NSCLC) was > 100 µM and the TGI (PC-3 prostate) was > 100 µM. For the same compound, the TGI (MCF7 breast) was > 100 µM, the TGI (NCI-H23 lung) was > 100 µM and the TGI (SNB-75 CNS) was > 100 µM. The TGI (ACHN renal) was > 100 µM, the TGI (DU-145 prostate) was > 100 µM and the TGI (HCT-116 colon) was > 100 µM. The TGI (HOP-92 NSCLC) was > 100 µM, the TGI (MDA-N) was > 100 µM and the TGI (SR leukemia) was > 100 µM. The TGI (A549 NSCLC) was > 100 µM, the TGI (OVCAR-5 ovarian) was > 100 µM and the TGI (BT-549 breast) was > 100 µM. The TGI (NCI-H460 lung) was > 100 µM, the TGI (MDA-MB-231 breast) was > 100 µM and the TGI (SN12C renal) was > 100 µM. For the same compound, the TGI (SF-268 CNS) was > 100 µM, the TGI (KM12 colon) was > 100 µM and the TGI (SK-MEL-2 melanoma) was > 100 µM. For the same compound, the TGI (UACC-62 melanoma) was > 100 µM, the TGI (HT29 colon) was > 100 µM and the TGI (SK-MEL-28 melanoma) was > 100 µM. The TGI (SW-620 colon) was > 100 µM, the TGI (LOX IMVI melanoma) was > 100 µM and the TGI (SK-OV-3 ovarian) was > 100 µM. The TGI (COLO 205 colon) was > 100 µM, the TGI (MDA-MB-435) was > 100 µM and the TGI (RPMI-8226 leukemia) was > 100 µM. The TGI (IGROV1 ovarian) was > 100 µM, the TGI (CCRF-CEM leukemia) was > 100 µM and the TGI (SF-539 CNS) was > 100 µM. For the same compound, the TGI (HOP-62 NSCLC) was > 100 µM, the TGI (SNB-19 CNS) was > 100 µM and the TGI (TK-10 renal) was > 100 µM. For the same compound, the TGI (SF-295 CNS) was > 100 µM, the TGI (HCT-15 colon) was > 100 µM and the TGI (OVCAR-3 ovarian) was > 100 µM. The TGI (U251 CNS) was > 100 µM and the TGI (MOLT-4 leukemia) was > 100 µM.

Reference: PubChem BioAssay (NCI)
